Results as given in ChEMBL document CHEMBL6182924, “Discovery of a Novel and Potent MET Transcription Inhibitor Targeting Promoter G-Quadruplex for the Treatment of NSCLC” (J Med Chem, 2025).
Calls of active or inactive are those of the source. No cut-off for these calls is given here.

Key:
A549 [1] = assay: Antiproliferative activity against human A549 cells incubated for 3 days by CCK-8 assay; format: functional, cell-based; conditions: A549, 72 h
Quadruplex DNA = assay: Binding affinity to G-quadruplex DNA (unknown origin) at 5 uM by fluorescence quenching analysis; format: nucleic-acid assay
A549 [2] = assay: Antitumor activity against human A549 cells xenografted in BALB/c mouse assessed as tumor growth inhibition at 20 mg/kg, po administered once a day and measured up to 24 days; format: functional; conditions: A549, 576 h, time <= 24 day, read-out: TGI
BaF3 [3] = assay: Antiproliferative activity against mouse BaF3 cells harboring TPR-MET L1195V mutant incubated for 24 hrs by CCK-8 assay; format: functional, cell-based; conditions: BaF3, 24 h
BaF3 [4] = assay: Antiproliferative activity against mouse BaF3 cells harboring TPR-MET D1228N mutant incubated for 24 hrs by CCK-8 assay; format: functional, cell-based; conditions: BaF3, 24 h
BaF3 [5] = assay: Antiproliferative activity against mouse BaF3 cells harboring TPR-MET […] mutant incubated for 24 hrs by CCK-8 assay; format: functional, cell-based; conditions: BaF3, 24 h
A549 [6] = assay: Downregulation of c-MYC expression in human A549 cells up to 2000 nM incubated for 72 hrs by Western blot analysis; format: functional, cell-based

IC50 (A549 [1]) [µM] | Compound | other results
3.44 | O=C(Nc1cccc(-c2cc3cccnc3c3ncccc23)c1)c1ccc(Cl)nc1 | –
1.43 | Fc1cccc(-c2ccc(-c3nc4c5cccnc5c5ncccc5c4[nH]3)o2)c1 | –
1.05 | N#Cc1cccc(-c2ccc(-c3nc4c5cccnc5c5ncccc5c4[nH]3)o2)c1 | –
4.47 | Brc1ccc(-c2nc3c4cccnc4c4ncccc4c3[nH]2)o1 | –
1.2 | COc1cccc(C(=O)Nc2cccc(-c3cc4cccnc4c4ncccc34)c2)c1OC | –
4.9 | N#Cc1ccc(-c2ccc(-c3nc4c5cccnc5c5ncccc5c4[nH]3)o2)cc1 | –
– | Nc1cccc(-c2cc3cccnc3c3ncccc23)c1 | Activity (Quadruplex DNA): Active
– | COc1cc(-c2nc3c4cccnc4c4ncccc4c3[nH]2)cc2c1OCO2 | Activity (Quadruplex DNA): Active
1.79 | O=C(Nc1cccc(-c2cc3cccnc3c3ncccc23)c1)c1ccccc1 | –
0.89 | c1cnc2c(c1)c1nc(-c3cc(-c4ccc5c(c4)OCCO5)cs3)[nH]c1c1cccnc12 | –
3.2 | O=[N+]([O-])c1ccc(-c2ccc(-c3nc4c5cccnc5c5ncccc5c4[nH]3)o2)cc1 | –
6.53 | N#Cc1cccc(-c2csc(-c3nc4c5cccnc5c5ncccc5c4[nH]3)c2)c1 | –
1.13 | COc1ccc(C(=O)Nc2cccc(-c3cc4cccnc4c4ncccc34)c2)cc1 | –
2.13 | Oc1ccc(-c2ccc(-c3nc4c5cccnc5c5ncccc5c4[nH]3)o2)cc1 | –
0.58 | COc1cccc(-c2csc(-c3nc4c5cccnc5c5ncccc5c4[nH]3)c2)c1 | –
4.4 | COc1cc2nccc(Oc3ccc(NC(=O)C4(C(=O)Nc5ccc(F)cc5)CC4)cc3)c2cc1OC [CABOZANTINIB] | inhibition in vivo at 20 mg/kg (A549 [2]): 51.7%; IC50 (BaF3 [3]): 0.92 µM; IC50 (BaF3 [4]): 5.84 µM; IC50 (BaF3 [5]): 3.98 µM
2.51 | N#Cc1cccc(C(=O)Nc2cccc(-c3cc4cccnc4c4ncccc34)c2)c1 | –
0.8 | O=C(Nc1cccc(-c2cc3cccnc3c3ncccc23)c1)c1ccc2nccnc2c1 | Activity (A549 [6]): Active
6.1 | Brc1csc(-c2nc3c4cccnc4c4ncccc4c3[nH]2)c1 | –
4.95 | Cn1ccc(-c2ccc(-c3nc4c5cccnc5c5ncccc5c4[nH]3)o2)n1 | –
0.71 | c1cnc2c(c1)c1nc(-c3ccc(-c4ccc5c(c4)OCCO5)o3)[nH]c1c1cccnc12 | –
3.72 | Cn1ccc(-c2csc(-c3nc4c5cccnc5c5ncccc5c4[nH]3)c2)n1 | –
